This test concerns the target T1, Human Polθ polymerase domain (aa1820-2590) (Homo sapiens, UniProt O75417).
T1 construct: Human Polθ polymerase domain (aa1820-2590) was expressed in E. coli; made in house; host or cells: E. coli
T1 sequence (O75417 1820-2590): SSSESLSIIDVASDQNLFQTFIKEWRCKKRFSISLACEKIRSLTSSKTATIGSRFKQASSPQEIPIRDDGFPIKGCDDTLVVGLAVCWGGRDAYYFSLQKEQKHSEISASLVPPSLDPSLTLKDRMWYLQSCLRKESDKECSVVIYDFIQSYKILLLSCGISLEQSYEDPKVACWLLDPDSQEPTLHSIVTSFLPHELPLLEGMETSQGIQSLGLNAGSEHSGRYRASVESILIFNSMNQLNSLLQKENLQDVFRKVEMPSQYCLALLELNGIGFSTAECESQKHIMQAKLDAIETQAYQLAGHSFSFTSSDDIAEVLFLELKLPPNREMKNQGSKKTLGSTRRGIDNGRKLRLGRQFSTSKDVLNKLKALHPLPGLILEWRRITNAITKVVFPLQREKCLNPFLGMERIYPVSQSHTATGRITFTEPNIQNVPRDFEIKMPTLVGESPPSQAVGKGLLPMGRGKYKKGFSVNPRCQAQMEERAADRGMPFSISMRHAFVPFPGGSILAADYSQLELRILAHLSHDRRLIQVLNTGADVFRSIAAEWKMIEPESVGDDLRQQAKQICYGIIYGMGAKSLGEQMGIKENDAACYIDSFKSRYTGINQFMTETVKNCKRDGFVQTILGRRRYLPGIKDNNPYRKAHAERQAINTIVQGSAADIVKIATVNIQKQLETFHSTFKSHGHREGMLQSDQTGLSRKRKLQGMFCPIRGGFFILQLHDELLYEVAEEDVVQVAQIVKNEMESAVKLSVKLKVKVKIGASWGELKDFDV
The test can be described thus: Polθ Polymerase Domain Kinact/KI Assay (PicoGreen). The class given is biochemical. The note with it: 0.8 nM Polθ, 100 nM DNA substrate, kobs vs [I] fit for 2-step covalent inhibitor. The essentials: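 Covalent Kinact/KI by PicoGreen DNA synthesis readout: E. coli-expressed Polθ polymerase domain (0.8 nM), 100 nM annealed DNA substrate, […], Tris pH 7.5 buffer with DTT, 1% DMSO; EDTA-stopped over 0–60 min time course. kobs from progress curves, then kobs vs [I] fit to two-step covalent model.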
In turn, `C=CC(=O)N1CCN2CCN(CCN3C[C@H]4CC(=O)N(c5cc(C(F)(F)F)cc(C)n5)[C@@H]4C(=O)N(C)c4cccc(F)c43)C(=O)[C@@H]2C1` [Example 45, (3aR,11aS)-5-(2-((S)-8-acryloyl-1-oxooctahydro-2H-pyrazino[1,2-a]pyrazin-2-yl)ethyl)-6-fluoro-10-methyl-1-(6-methyl-4-(trifluoromethyl)pyridin-2-yl)-1,3a,4,5,10,11a-hexahydro-2H-benzo[b]pyrrolo[2,3-f][1,4]diazocine-2,11(3H)-dione] returned a Kinact/Kl of 310000 M⁻¹ s⁻¹.

The compound `C=CC(=O)N1Cc2ccc(CN3C[C@H]4CC(=O)N(c5cc(C(F)(F)F)cc(C)n5)[C@@H]4C(=O)N(C)c4cccc(Cl)c43)cc2C1CC#N` (single isomer, unassigned) [Example 288a] displayed a Kinact/Kl of 630000 M⁻¹ s⁻¹.

In turn, `Cc1cc(C(F)(F)F)cc(N2C(=O)C[C@@H]3CN(Cc4cn5c(n4)CN(C(=O)/C=C/C(F)(F)F)CC5)c4c(Cl)cccc4N(C)C(=O)[C@H]32)n1` [Example 307, (3aR,11aS)-6-chloro-10-methyl-1-(6-methyl-4-(trifluoromethyl)pyridin-2-yl)-5-((7-((E)-4,4,4-trifluorobut-2-enoyl)-5,6,7,8-tetrahydroimidazo[1,2-a]pyrazin-2-yl)methyl)-1,3a,4,5,10,11a-hexahydro-2H-benzo[b]pyrrolo[2,3-f][1,4]diazocine-2,11(3H)-dione] showed a Kinact/Kl of 1.35e+06 M⁻¹ s⁻¹.

Turning to `C=CC(=O)N1CC2CCC(C1)N2CCN1C[C@H]2CC(=O)N(c3cc(C(F)(F)F)cc(C)n3)[C@@H]2C(=O)N(C)c2cccc(C)c21` [Example 262, (3aR,11aS)-5-(2-(3-acryloyl-3,8-diazabicyclo[3.2.1]octan-8-yl)ethyl)-6,10-dimethyl-1-(6-methyl-4-(trifluoromethyl)pyridin-2-yl)-1,3a,4,5,10,11a-hexahydro-2H-benzo[b]pyrrolo[2,3-f][1,4]diazocine-2,11(3H)-dione], the Kinact/Kl stood at 710000 M⁻¹ s⁻¹. The result for `C=C(CN(C)C)C(=O)N1CC(CCCN2C[C@H]3CC(=O)N(c4cc(C(F)(F)F)cc(C)n4)[C@@H]3C(=O)N(C)c3cccc(Cl)c32)C1` [Example 299, (3aR,11aS)-6-chloro-5-(3-(1-(2-((dimethylamino)methyl)acryloyl)azetidin-3-yl)propyl)-10-methyl-1-(6-methyl-4-(trifluoromethyl)pyridin-2-yl)-1,3a,4,5,10,11a-hexahydro-2H-benzo[b]pyrrolo[2,3-f][1,4]diazocine-2,11(3H)-dione] reads 1.99e+06 M⁻¹ s⁻¹; that for `C=CC(=O)N1CCN2C(=O)[C@H](C)N(CCN3C[C@H]4CC(=O)N(c5cc(C(F)(F)F)cc(C)n5)[C@@H]4C(=O)N(C)c4cccc(F)c43)C[C@@H]2C1` (single isomer, unassigned) [Example 108], 2.35e+06 M⁻¹ s⁻¹; that for `C=CC(=O)N1CCC[C@@H]1c1noc(CN2C[C@H]3CC(=O)N(c4cc(C(F)(F)F)cc(C)n4)[C@@H]3C(=O)N(C)c3cccc(C)c32)n1` [Example 268, (3aR,11aS)-5-((3-((R)-1-acryloylpyrrolidin-2-yl)-1,2,4-oxadiazol-5-yl)methyl)-6,10-dimethyl-1-(6-methyl-4-(trifluoromethyl)pyridin-2-yl)-1,3a,4,5,10,11a-hexahydro-2H-bez[b]pyrrolo[2,3-f][1,4]diazocine-2,11(3H)-dione], 410000 M⁻¹ s⁻¹. `C=CC(=O)N1CC2(CN(CCN3C[C@H]4CC(=O)N(c5cc(C(F)(F)F)cc(C)n5)[C@@H]4C(=O)N(C)c4cccc(F)c43)C[C@@H](COC)N2)C1` [Example 6, (3aR,11aS)-5-(2-((S)-2-acryloyl-6-(methoxymethyl)-2,5,8-triazaspiro[3.5]nonan-8-yl)ethyl)-6-fluoro-10-methyl-1-(6-methyl-4-(trifluoromethyl)pyridin-2-yl)-1,3a,4,5,10,11a-hexahydro-2H-benzo[b]pyrrolo[2,3-f][1,4]diazocine-2,11(3H)-dione]: the Kinact/Kl is 540000 M⁻¹ s⁻¹. The figure for `Cc1cc(C(F)(F)F)cc(N2C(=O)C[C@@H]3CN(Cc4ccc5c(c4)N(C(=O)/C=C/CN(C)C)CCO5)c4c(Cl)cccc4N(C)C(=O)[C@H]32)n1` [Example 251, (3aR,11aS)-6-chloro-5-((4-((E)-4-(dimethylamino)but-2-enoyl)-3,4-dihydro-2H-benzo[b][1,4]oxazin-6-yl)methyl)-10-methyl-1-(6-methyl-4-(trifluoromethyl)pyridin-2-yl)-1,3a,4,5,10,11a-hexahydro-2H-benzo[b]pyrrolo[2,3-f][1,4]diazocine-2,11(3H)-dione] is 370000 M⁻¹ s⁻¹.

`Cc1cc(C(F)(F)F)cc(N2C(=O)C[C@@H]3CN(Cc4ccc5c(c4)C(CC#N)N(C(=O)/C=C/CN(C)C)C5)c4c(Cl)cccc4N(C)C(=O)[C@H]32)n1` (single isomer, unassigned) [Example 311a]: the Kinact/Kl amounted to 1.12e+06 M⁻¹ s⁻¹.

Consider `C=CC(=O)N1CCC(n2cnc(CN3C[C@H]4CC(=O)N(c5cc(C(F)(F)F)cc(C)n5)[C@@H]4C(=O)N(C)c4cccc(F)c43)n2)CC1` [Example 126, (3aR,11aS)-5-((1-(1-acryloylpiperidin-4-yl)-1H-1,2,4-triazol-3-yl)methyl)-6-fluoro-10-methyl-1-(6-methyl-4-(trifluoromethyl)pyridin-2-yl)-1,3a,4,5,10,11a-hexahydro-2H-benzo[b]pyrrolo[2,3-f][1,4]diazocine-2,11(3H)-dione], for which the Kinact/Kl is 460000 M⁻¹ s⁻¹. In turn, `C=CC(=O)N1CCC(N2CCC(CN3C[C@H]4CC(=O)N(c5cc(C(F)(F)F)cc(C)n5)[C@@H]4C(=O)N(C)c4cccc(Cl)c43)CC2)C1` (stereo partly drawn) [Example 222, (3aR,11aS)-5-((1-(1-acryloylpyrrolidin-3-yl)piperidin-4-yl)methyl)-6-chloro-10-methyl-1-(6-methyl-4-(trifluoromethyl)pyridin-2-yl)-1,3a,4,5,10,11a-hexahydro-2H-benzo[b]pyrrolo [2,3-f][1,4] diazocine-2,11(3H)-dione] gave a Kinact/Kl of 2.04e+06 M⁻¹ s⁻¹. For `C=CC(=O)Nc1ccc(CN2C[C@H]3CC(=O)N(c4cc(C(F)(F)F)cc(C)n4)[C@@H]3C(=O)N(C)c3cccc(Cl)c32)cc1C#N` [Example 248, N-(4-(((3aR,11aS)-6-chloro-10-methyl-1-(6-methyl-4-(trifluoromethyl)pyridin-2-yl)-2,11-dioxo-1,2,3,3a,4,10,11,11a-octahydro-5H-benzo[b]pyrrolo[2,3-f][1,4]diazocin-5-yl)methyl)-2-cyanophenyl)acrylamide], the Kinact/Kl is 810000 M⁻¹ s⁻¹. As for `Cc1cc(C(F)(F)F)cc(N2C(=O)C[C@@H]3CN(Cc4ccc5c(c4)CCN(C(=O)/C=C/CN(C)C)C5)c4c(F)cccc4N(C)C(=O)[C@H]32)n1` [Example 149, (3aR, 11aS)-5-((2-((E)-4-(dimethylamino)but-2-enoyl)-1,2,3,4-tetrahydroisoquinolin-6-yl)methyl)-6-fluoro-10-methyl-1-(6-methyl-4-(trifluoromethyl)pyridin-2-yl)-1,3a,4,5,10,11a-hexahydro-2H-benzo[b]pyrrolo[2,3-f][1,4]diazocine-2,11(3H)-dione], the Kinact/Kl came to 1.08e+06 M⁻¹ s⁻¹.

Compound `COc1cc(CN2C[C@H]3CC(=O)N(c4cc(C(F)(F)F)cc(C)n4)[C@@H]3C(=O)N(C)c3cccc(C)c32)ccc1NC(=O)/C=C/CN(C)C` [Example 208, (E)-N-(4-(((3aR, 11aS)-6,10-dimethyl-1-(6-methyl-4-(trifluoromethyl)pyridin-2-yl)-2,11-dioxo-1,2,3,3a,4,10,11,11a-octahydro-5H-benzo[b]pyrrolo [2,3-f][1,4]diazocin-5-yl)methyl)-2-methoxyphenyl)-4-(dimethylamino) but-2-enamide] registered a Kinact/Kl of 4.36e+06 M⁻¹ s⁻¹.

`C=C(CO)C(=O)N1CCC(CCCN2C[C@H]3CC(=O)N(c4cc(C(F)(F)F)cc(C)n4)[C@@H]3C(=O)N(C)c3cccc(Cl)c32)CC1` [Example 168, (3aR,11aS)-6-chloro-5-(3-(1-(2-(hydroxymethyl)acryloyl)piperidin-4-yl)propyl)-10-methyl-1-(6-methyl-4-(trifluoromethyl)pyridin-2-yl)-1,3a,4,5,10,11a-hexahydro-2H-benzo[b]pyrrolo[2,3-f][1,4]diazocine-2,11(3H)-dione] gave a Kinact/Kl of 1.97e+06 M⁻¹ s⁻¹.

On to `C=CC(=O)N1CC(N2CCN(CCN3C[C@H]4CC(=O)N(c5cc(C(F)(F)F)cc(C)n5)[C@@H]4C(=O)N(C)c4cc(F)cc(C)c43)CC2)C1` [Example 18, (3aR,11aS)-5-(2-(4-(1-acryloylazetidin-3-yl)piperazin-1-yl)ethyl)-8-fluoro-6,10-dimethyl-1-(6-methyl-4-(trifluoromethyl)pyridin-2-yl)-1,3a,4,5,10,11a-hexahydro-2H-benzo[b]pyrrolo[2,3-f][1,4]diazocine-2,11(3H)-dione], for which the Kinact/Kl came to 1.18e+06 M⁻¹ s⁻¹.

The record behind these values is patent publication US20250230165A1, “HETEROCYCLIC COMPOUNDS FOR USE IN THE TREATMENT OF CANCER” (ARTIOS PHARMA LIMITED, priority 2021, published 2025).
